What was measured:
Type in all cases: cell-based, C57BL/6 mice
[1] = system: LYZ secretion by Paneth cells in organoid culture; assay: Lysozyme functional secretion assay (EnzChek), basal and CCh-stimulated
Description: In addition to the morphological, proteomic, and transcriptional characterization of PC phenotype in ENR+CD and ENR, Applicants sought to measure physiological function by assessing stimulant-induced secretion of antimicrobials. Applicants assessed the dynamics of LYZ accumulation in media supernatant of cultures following media wash, basally and after stimulation with carbachol (CCh), a cholinergic agonist known to induce PC secretion. […] The observed PC secretion in response to CCh is consistent with observations made in ex vivo crypts, though over appreciably longer time scales, likely due to the added diffusion barrier of the organoid structure and matrigel. Applicants next identified how LYZ secretion changes over the course of differentiation. Beginning with an ISC-enriched population, Applicants assayed for secreted LYZ in cell culture supernatants every two days for six days of ENR+CD culture, following a 24-hour stimulation with CCh or without (basal collection/non-stimulated).
Lysozyme functional secretion assay. Lysozyme secretion was measured using a Lysozyme Assay Kit (EnzChek; Thermo Fisher). Briefly, cells suspended in Matrigel in 24-well plates were washed (basal culture media 3X) and either supplemented with 500 μL of basal culture media or basal culture media plus 10 μM Carbachol (CCh, Sigma Aldrich) for 24 hours at 37° C. Following stimulation, culture plates were spun at high speed (>2000 g) for 5 min at RT to pellet cell debris and loose Matrigel. 25 μL of conditioned supernatant was removed from the top of each well and quantified per manufacturer's protocol.

[2] = system: organoid single cells (clusters ENR, ENR+CV, ENR+CD); assay: Seq-Well single-cell RNA-sequencing and transcriptional scoring of ENR+CV, ENR and ENR+CD organoids; settings: p<2.2×10^−16
Description: Applicants performed scRNA-seq using the Seq-Well platform on cells from ENR+CD and the precursor ENR+CV conditions to analyze alongside conventional ENR organoids. To ensure experimental robustness, Applicants assessed quality metrics for number of genes, unique molecular identifiers (UMIs), mitochondrial genes, and ribosomal genes by cluster, all of which fell within expectation (FIG. 11).
To assess sub-population structure and provide a more robust measure of composition beyond canonical marker genes, Applicants performed unsupervised KNN graph-based clustering on the captured cells (FIG. 4C,D and Table 1 for full gene lists), distinguishing four clusters in each treatment condition. Applicants then scored individual clusters according to the amount of the transcriptome within each cell dedicated to synthesizing the respective enriched proteins from the bulk proteome data.
To confirm and extend the findings of pathway-based modulation, Applicants scored clusters for enrichment or depletion of canonical growth factor-induced pathways.

[3] = system: in vitro PCs (CD24+ & LYZ+) in ENR+CD culture; NUPR1; assay: Trifluoperazine (NUPR1 inhibition) treatment of ENR+CD cultures, flow cytometry of viability and CD24/LYZ populations
Description: Lastly, Applicants sought to use this physiologically-improved in vitro PC system (ENR+CD) to identify novel factors potentially supportive of PC survival or differentiation. […] Intriguingly, Nupr1 is a stress-response gene, known to promote cellular survival and senescence through mediation of autophagy, and has primarily been studied in the context of cancer. Autophagy and stress response have repeatedly been implicated through GWAS study in PCs in IBD, however Nupr1 has only ever been reported in a single IBD GWAS study, and its role in PC biology has not been formally investigated. With the model, Applicants sought to test the role of NUPR1 on in vitro PC survival, through the small molecule inhibition of NUPR1 with trifluoperazine (TFP).
Flow cytometry. Cell clusters were isolated from Matrigel as previously described and resuspended in TrypLE Express at 37° C. for 20 mins to dissociate into single cells. Dissociated cells were centrifuged at 300 g for 3 mins at 4° C. The pellet was resuspended in FACS buffer (1% FBS in PBS, Thermo Fisher Scientific) and strained into a 5-mL filter cap tube using a 40 μm filter. The cell suspension was transferred to a flow prep microcentrifuge tube and centrifuged at 300 rcf for 3 min. Cell pellets were resuspended in a Zombie violet dye (BioLegend 100X) in FACS buffer for viability staining followed with 1% PFA fixation for 20 minutes at RT. Pellets were permeabilized for 20 minutes at RT with staining buffer (0.5% Tween-20 in FACS buffer, Sigma), and co-stained with rabbit anti-human FITC-Lyz (100X) and rat anti-mouse APC-CD24 (100X) antibodies diluted in staining buffer for 45 min at RT. Flow cytometry was performed using a BD LSR II HTS (BD; Koch Institute Flow Cytometry Core at MIT). Initial settings and laser voltages were determined with unstained, single channel stains or secondary-only controls (data not shown). Flow cytometry data was analyzed using FlowJo v10.7 software.

[4] = system: intracellular proteome of ENR+CD and ENR organoids; assay: LC-MS/MS TMT proteomics of ENR+CD versus ENR organoids; settings: for change: up = enriched in ENR+CD, down = enriched in ENR, FDR<0.05 and log fold change cut-off
Description: Because PCs are highly secretory, protein-rich cells, Applicants sought to assess the total intracellular proteome between conditions through liquid chromatography mass spectrometry (LC-MS/MS)-based proteomics. Applicants quantified relative protein abundance across eight samples using isobaric mass tag labeling from four ENR and four ENR+CD samples (M1-1 through M2-2, first digit denotes biological donor, second digit denotes technical replicate) (FIG. 3A). Samples were processed and analyzed in a single 10-plex by LC-MS/MS (FIG. 9A).
To affirm the reproducibility of the associated proteins in the ENR+CD-enriched proteome, Applicants performed relative quantification within differentiation sets.
Mass spectrometry proteomics sample preparation, sequencing, and quantification. Organoid cell pellets were isolated from Matrigel with mechanical dissociation and washed (cold PBS 5X) to remove residual extracellular protein. Proteins were extracted from cell pellets with 8 M urea (Sigma), reduced with 5 mM DTT (Thermo Fisher Pierce) for 45 minutes, alkylated with 10 mM IAA (Sigma) for 45 minutes in the dark, and double digested with both Lysyl Endopeptidase “LysC” (Wako) and trypsin (Promega) overnight at RT. A small aliquot of cellular lysate was removed from each sample for protein quantification via the Pierce™ BCA Protein Assay Kit (Pierce). After proteolytic digestion, the samples were quenched using formic acid to a final concentration of 1.0% and subsequently desalted on 10 mg OASIS HLB solid phase columns (Waters).
The peptides were labeled with TMT-10 isobaric mass tag reagent according to manufacturer's instructions (ThermoFisher Scientific). The peptides were labeled at a 1:8 ratio of peptide to TMT reagent, followed by 1-hour incubation at RT with bench top shaking at 850 rpm. After incubation, a […] of labeled tryptic peptide was removed from each labeled condition, desalted with C18 stage tips, and analyzed via LC-MS/MS using a Thermo Fisher Q Exactive Plus Hybrid Mass Spectrometer (QE-Plus) coupled to a Thermo Fisher EASY-nLC 1000 liquid chromatograph to ensure isobaric label incorporation >95%. An additional 1.0 μg of labeled tryptic peptide was removed from each channel, mixed together, desalted on a C18 stage tip, and analyzed via LC-MS to ensure equal relative protein loads. During these quality control steps, the labeled peptides were stored, unquenched at −80° C.

[5] = doses above luM, in combination with ENR+CD for six days
[6] = ENR+CD versus ENR organoids, sample pairs in aggregate (n=4, 2 technical replicates from two biological donors)
[7] = protein abundance ratio ENR+CD versus ENR organoids, sample pair M1-1, LC-MS/MS TMT proteomics
[8] = protein abundance ratio ENR+CD versus ENR organoids, sample pair M1-2, LC-MS/MS TMT proteomics
[9] = protein abundance ratio ENR+CD versus ENR organoids, sample pair M2-1, LC-MS/MS TMT proteomics
[10] = protein abundance ratio ENR+CD versus ENR organoids, sample pair M2-2, LC-MS/MS TMT proteomics

Compound	Average logFC [4, 6]	M1-1 Log2 Median Normalized [4, 7]	M1-2 Log2 Median Normalized [4, 8]	M2-1 Log2 Median Normalized [4, 9]	M2-2 Log2 Median Normalized [4, 10]	change [4]	also measured
C[N+](C)(C)CCOC(N)=O [CCh, carbachol]	–	–	–	–	–	–	plateau of LYZ accumulation in supernatant ([1]; 10 μM, six day ENR+CD culture): plateaued around six hours post-wash; LYZ accumulation in media supernatant after stimulation ([1]; 10 μM, six day ENR+CD culture, post-wash): rapid accumulation of LYZ within two hours; functional LYZ secretion (stimulated relative to basal) over differentiation ([1]; 24-hour stimulation, days four and six of ENR+CD culture): Notable increases in functional secretion
Cc1c[nH]c(-c2cnc(NCCNc3ccc(C#N)cn3)nc2-c2ccc(Cl)cc2Cl)n1 [CHIR, CHIR99021]	–	–	–	–	–	–	Wnt target gene enrichment, effect size ([2]; all ENR+CD clusters vs ENR-4): > 0.999
C[C@H](NC(=O)Cc1cc(F)cc(F)c1)C(=O)N[C@H](C(=O)OC(C)(C)C)c1ccccc1 [DAPT]	–	–	–	–	–	–	Notch target gene depletion, effect size ([2]; ENR+CD-4 vs ENR-4): −0.658
CN1CCN(CCCN2c3ccccc3Sc3ccc(C(F)(F)F)cc32)CC1 [TFP, trifluoperazine]	–	–	–	–	–	–	cellular viability ([3]; added for two days following a six-day course of ENR+CD): profound, but not total, decline in cellular viability; toxicity, preference to PCs (CD24+ & LYZ+) and PC-like populations ([3]; concurrent with 6-day ENR+CD differentiation (FIG. 7C)): dose-dependent toxicity; cell death during differentiation [3, 5]: near total cell death; identity of surviving cells [3, 5]: primarily non-Paneth; selectivity of toxicity between cell populations ([3]; two days following six-day ENR+CD): selectively more toxic to PC and PC-progenitor populations relative to non-PC populations; toxicity, preference to PCs (CD24+ & LYZ+) and PC-like populations ([3]; two-day treatment following 6-day ENR+CD differentiation (FIG. 7D)): dose-dependent toxicity
Q9D937	−1.943	−2.074	−1.942	−1.0675	−2.286	down	–
Q9ET22	1.277	1.451	1.159	1.3455	1.153	up	–
Q9JMC3	1.386	1.758	0.805	1.3105	1.67	up	–
Q9QWG7	−1.142	−1.032	−1.575	−1.8475	−0.115	down	–
Q9R0M0	1.229	1.297	0.675	1.2135	1.732	up	–
Q52KR3	−1.393	−2.118	−0.268	−1.3905	−1.67	down	–
Q80SU7	−1.224	−1.279	−0.758	−1.2235	−1.338	down	–
Q80TR4	1.235	1.316	1.587	1.2175	0.818	up	–
Q91VE6	−1.411	−1.492	−1.242	−1.0275	−1.884	down	–
Q91WA1	−1.673	−1.929	−0.883	−1.5765	−2.303	down	–
Q03172	–	–	–	–	–	up	Average logFC ([4]; protein abundance, ENR+CD versus ENR organoids, aggregate of the four sample pairs): 1.206; M1-1 Log2 Median Normalized ([4]; protein abundance, ENR+CD versus ENR organoids, replicate M1-1, log2 ratio): 0.832; M1-2 Log2 Median Normalized ([4]; protein abundance, ENR+CD versus ENR organoids, replicate M1-2, log2 ratio): 1.656; M2-1 Log2 Median Normalized ([4]; protein abundance, ENR+CD versus ENR organoids, replicate M2-1, log2 ratio): 1.2325; M2-2 Log2 Median Normalized ([4]; protein abundance, ENR+CD versus ENR organoids, replicate M2-2, log2 ratio): 1.102
Q60936	−1.292	−1.293	−1.012	−1.8255	−1.133	down	–
Q60997	−1.332	−1.643	−0.987	−1.1555	−1.543	down	–
